Columns and labels:
[1] = biological target: LYR3 (Medicago truncatula, UniProt G7KAT5); test: Saturation and competitive binding on LYR3-YFP expressed in N. benthamiana leaf membrane fractions; details: for Ki: LYR3-YFP in N. benthamiana leaf membranes, competition with 0.9 nM LCO-IV(35S, C16:2Δ2,9), read-out: Affinity (nM) for LYR3 (Ki); for affinity / competition for binding to LYR3 (in words): competition with radioactive LCO
Text: Genes LYR3, LYK9 and LYR6 were inserted into a binary vector, fused in C-terminal with a fluorescent protein (Yellow Fluorescent Protein: YFP) and introduced into Nicotiana benthamiana leaves using agroinfiltration by Agrobacterium tumefaciens. Meanwhile, NFP and LYK3 genes which encode putative receptors […] Nod factors were inserted into the same vectors and expressed in the same conditions.
3 days after agro-infiltration, leaves of N. benthamiana expressing the different constructs were harvested and ground in liquid nitrogen. Membrane fractions were prepared from the ground material, using the same protocol as that described above for the preparation of microsomal fractions, except that 0.6% (w/v) of polyvinyl-polypyrrolidone were added to extraction buffer. After centrifugation at 3000×g, the supernatant was collected and centrifuged at 45000×g. The resulting (membrane fraction) pellet was resuspended in binding buffer, and stored at −80° C. in the presence of 10% or 50% glycerol, until use.
Membrane proteins were separated by 10% polyacrylamide gel electrophoresis in SDS, and transferred onto nitrocellulose membrane, and detection of recombinant proteins made using anti-GFP antibody. Meanwhile, the properties of specific binding to LCOs were assessed by equilibrium binding, as described in Example 1, using 0.8 to 2.4 nM of LCO-IV (^35S, C16:2Δ2, 9) +/−2 μM of unlabeled LCO-IV (S, C16: 2Δ2, 9), and 25 micrograms to 80 micrograms of membrane protein, depending of the expression level of the protein labeled with YFP.
To further characterize the binding properties of the protein LYR3, saturation binding experiments using LCO-IV (^35S, C16:2Δ2, 9) and competitive binding experiments in the presence of different COs or LCOs were performed.

[2] = biological target: PsLYR3 (Lathyrus oleraceus, UniProt A0A9D5BD18); test: Equilibrium, saturation and competitive binding on MtLYR3 ortholog expressed in N. benthamiana leaves; parameters: species or system Pisum sativum; details: PsLYR3; for Ki: read-out: Affinity (Ki)
Text: (§1) In legumes, MtLYR3 orthologs have been identified in P. sativum, P. vulgaris and L. japonicus. In G. max orthologs exist in duplicate due to a duplication of the genome. The corresponding genes have been cloned and sequenced. A few differences in sequence compared with sequences in the databases were found which could be explained by the use of different varieties of plants or by sequencing errors in databases. The cloned genes were introduced into binary vectors, in C-terminal fusion with the fluorescent protein YFP, and introduced into Nicotiana benthamiana leaves using agroinfiltration by Agrobacterium tumefaciens, as described above in Example 3. The membrane fractions were isolated, their protein content was analyzed by electrophoresis under denaturing conditions, followed by immunodetection using anti-GFP antibody as described in Example 3, and their ability to interact with LCOs was determined by equilibrium binding, as described in Example 1, in the presence of 1 nM LCO-IV (S^35, C16:2Δ2, 9). The value of specific binding is determined by the value of difference between the total binding and the nonspecific binding obtained for incubation in the presence of an excess (2 μM) of unlabeled ligand. For comparison, the ability to interact of LjNFR5 and LjNFR1 receptors, identified in L. japonicus to play a role in nodulation by a genetic approach (MADSEN et al, Nature, 425, 637-40, 2003. RADUTOIU et al., Nature, 425, 585-92, 2003a) and respective orthologs of LYK3 and NFP in M. truncatula was determined under the same conditions.
(§2) To further characterize the binding properties of MtLYR3 orthologs to LCOs, saturation and competitive binding experiments in the presence of different COs or LCOs were performed.

[3] = biological target: GmLYR3-1 (Glycine max, UniProt A5YJW2); test: as above; details: GmLYR3-1; for Ki: read-out: Affinity (Ki)
Text: as §1, §2

[4] = biological target: GmLYR3-11 (Glycine max, UniProt I1LHL9); test: as above; details: GmLYR3-11; for Ki: read-out: Affinity (Ki)
Text: as §1, §2

[5] = biological target: LjLYS12 (Lotus japonicus, UniProt D3KTZ9); test: as above; details: LjLYS12; for Ki: read-out: Affinity (Ki)
Text: as §1, §2

[6] = biological target: PvLYR3 (Phaseolus vulgaris, UniProt V7CFC1); test: as above; details: PvLYR3; for Ki: read-out: Affinity (Ki)
Text: as §1, §2

[7] = tested on: 100 kDa polypeptide (MtNFBS2); test: Photolabeling of the 100 kDa polypeptide in membrane fractions, with excess competitors; type: binding, Medicago truncatula; details: 2 μM competitor, 5 nM azido ligand, dmi3 membrane fraction
Text: To assess the molecular mass of the affine protein of Nod factors responsible for binding properties of MtNFBS2, a photolabeling with Nod factors analogs containing a photoactivatable group, which after irradiation in a given wavelength reactive species which can form a covalent bond with the surrounding molecules, has been taken. […] homologues of these molecules have been synthesized and labeled with ^35S to enable detection of the stable complex ligand/binding protein.
For photolabeling, 5 nM of radioactive and photoactivatable ligand, alone or in the presence of an excess (2 μM) different competitors were incubated in binding buffer, in the same conditions as described in Example 1 above for the binding experiments at equilibrium, with 300 micrograms of membrane protein fraction obtained from cultured cells of wild-type Medicago truncatula (A 17), or the dmi3 mutant of Medicago truncatula. After 1 hour of incubation, the samples were irradiated for 5 min at 254 nm or 10 min at 365 nm with a fluorescent tube at a distance of 4 cm. The free ligand was removed by centrifugation, and the membrane pellet was washed two times in binding buffer.
The membrane pellet proteins were separated by polyacrylamide gel electrophoresis in 10% SDS, and transferred onto nitrocellulose membrane, and detection was carried out by autoradiography.

Sequence of GmLYR3-1 (A5YJW2 entry or part of it): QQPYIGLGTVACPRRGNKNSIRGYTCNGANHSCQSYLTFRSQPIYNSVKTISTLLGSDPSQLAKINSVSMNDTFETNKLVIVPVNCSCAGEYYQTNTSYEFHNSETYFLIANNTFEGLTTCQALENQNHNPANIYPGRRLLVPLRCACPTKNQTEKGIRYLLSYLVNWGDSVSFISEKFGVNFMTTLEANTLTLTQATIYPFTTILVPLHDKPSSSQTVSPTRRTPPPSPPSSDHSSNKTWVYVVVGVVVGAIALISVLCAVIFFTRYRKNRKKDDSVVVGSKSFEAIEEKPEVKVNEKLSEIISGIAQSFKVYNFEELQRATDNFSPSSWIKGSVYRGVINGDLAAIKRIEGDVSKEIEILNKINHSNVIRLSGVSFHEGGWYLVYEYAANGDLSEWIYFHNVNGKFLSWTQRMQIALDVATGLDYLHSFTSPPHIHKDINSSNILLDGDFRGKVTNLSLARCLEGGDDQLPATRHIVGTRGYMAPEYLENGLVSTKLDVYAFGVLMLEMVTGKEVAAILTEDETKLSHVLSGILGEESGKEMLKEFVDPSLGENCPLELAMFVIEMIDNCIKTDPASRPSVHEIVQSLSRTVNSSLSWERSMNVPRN
Sequence of LYR3 (G7KAT5 entry or part of it): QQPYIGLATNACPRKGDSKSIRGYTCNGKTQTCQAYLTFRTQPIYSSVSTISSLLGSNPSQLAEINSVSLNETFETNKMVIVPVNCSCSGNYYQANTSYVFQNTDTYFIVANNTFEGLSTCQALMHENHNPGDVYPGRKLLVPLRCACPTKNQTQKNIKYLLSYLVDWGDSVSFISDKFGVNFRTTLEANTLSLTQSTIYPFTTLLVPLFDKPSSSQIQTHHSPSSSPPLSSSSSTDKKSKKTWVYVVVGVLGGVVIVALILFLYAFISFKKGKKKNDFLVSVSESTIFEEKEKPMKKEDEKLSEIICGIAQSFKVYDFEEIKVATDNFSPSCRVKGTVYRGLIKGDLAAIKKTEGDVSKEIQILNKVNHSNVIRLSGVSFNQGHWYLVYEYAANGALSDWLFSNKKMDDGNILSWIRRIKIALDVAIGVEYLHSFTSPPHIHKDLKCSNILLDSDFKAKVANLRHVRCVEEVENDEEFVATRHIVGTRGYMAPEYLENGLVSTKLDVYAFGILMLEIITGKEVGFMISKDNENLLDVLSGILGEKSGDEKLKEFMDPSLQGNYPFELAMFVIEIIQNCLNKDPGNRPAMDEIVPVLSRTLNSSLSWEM
Sequence of GmLYR3-11 (I1LHL9 entry or part of it): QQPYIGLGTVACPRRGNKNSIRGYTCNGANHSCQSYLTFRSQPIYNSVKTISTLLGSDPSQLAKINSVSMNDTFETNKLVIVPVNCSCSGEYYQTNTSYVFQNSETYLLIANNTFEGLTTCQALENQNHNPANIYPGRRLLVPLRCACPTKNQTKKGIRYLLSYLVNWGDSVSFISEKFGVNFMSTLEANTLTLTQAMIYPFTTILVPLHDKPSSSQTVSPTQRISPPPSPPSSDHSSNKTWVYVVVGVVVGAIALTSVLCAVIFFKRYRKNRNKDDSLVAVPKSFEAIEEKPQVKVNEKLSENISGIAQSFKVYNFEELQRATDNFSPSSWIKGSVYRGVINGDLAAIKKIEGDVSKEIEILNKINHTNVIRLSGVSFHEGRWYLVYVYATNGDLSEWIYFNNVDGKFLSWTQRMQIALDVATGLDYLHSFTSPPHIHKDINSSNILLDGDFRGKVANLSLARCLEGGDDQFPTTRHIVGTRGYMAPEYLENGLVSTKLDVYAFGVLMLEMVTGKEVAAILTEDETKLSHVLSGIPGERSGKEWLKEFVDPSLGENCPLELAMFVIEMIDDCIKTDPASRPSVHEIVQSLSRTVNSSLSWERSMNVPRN
Sequence of LjLYS12 (D3KTZ9 entry or part of it): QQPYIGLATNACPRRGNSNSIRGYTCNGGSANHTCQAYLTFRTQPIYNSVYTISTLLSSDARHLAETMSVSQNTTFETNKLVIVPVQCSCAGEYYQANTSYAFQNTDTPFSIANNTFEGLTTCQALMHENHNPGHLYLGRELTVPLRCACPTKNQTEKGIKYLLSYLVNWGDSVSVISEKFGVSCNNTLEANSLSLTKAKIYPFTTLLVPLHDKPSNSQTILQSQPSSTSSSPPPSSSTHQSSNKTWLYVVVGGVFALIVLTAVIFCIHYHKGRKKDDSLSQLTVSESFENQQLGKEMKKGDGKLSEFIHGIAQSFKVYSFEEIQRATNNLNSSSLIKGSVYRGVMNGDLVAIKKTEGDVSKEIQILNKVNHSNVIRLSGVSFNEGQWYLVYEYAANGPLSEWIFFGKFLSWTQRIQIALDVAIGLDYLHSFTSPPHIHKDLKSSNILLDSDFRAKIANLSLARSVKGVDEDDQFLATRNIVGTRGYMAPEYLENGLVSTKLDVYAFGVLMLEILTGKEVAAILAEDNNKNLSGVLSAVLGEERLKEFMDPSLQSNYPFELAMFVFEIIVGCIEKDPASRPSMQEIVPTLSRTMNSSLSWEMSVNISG
Sequence of PvLYR3 (V7CFC1 entry or part of it): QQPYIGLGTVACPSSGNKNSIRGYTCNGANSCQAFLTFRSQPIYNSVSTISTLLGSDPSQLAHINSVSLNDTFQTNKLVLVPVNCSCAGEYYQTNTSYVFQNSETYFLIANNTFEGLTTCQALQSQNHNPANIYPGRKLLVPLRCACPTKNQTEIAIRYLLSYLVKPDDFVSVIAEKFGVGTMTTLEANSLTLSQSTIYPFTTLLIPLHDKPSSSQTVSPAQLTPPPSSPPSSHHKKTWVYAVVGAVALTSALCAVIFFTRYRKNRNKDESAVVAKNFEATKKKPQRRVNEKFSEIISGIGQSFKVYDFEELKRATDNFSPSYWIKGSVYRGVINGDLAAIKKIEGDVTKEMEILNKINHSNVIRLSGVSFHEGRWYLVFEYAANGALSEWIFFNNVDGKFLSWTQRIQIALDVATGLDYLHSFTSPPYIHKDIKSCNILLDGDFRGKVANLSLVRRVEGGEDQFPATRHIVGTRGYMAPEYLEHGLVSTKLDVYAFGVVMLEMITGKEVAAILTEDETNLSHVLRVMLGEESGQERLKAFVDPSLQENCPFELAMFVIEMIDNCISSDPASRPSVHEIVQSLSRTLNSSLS
Sequence of PsLYR3 (A0A9D5BD18 entry or part of it): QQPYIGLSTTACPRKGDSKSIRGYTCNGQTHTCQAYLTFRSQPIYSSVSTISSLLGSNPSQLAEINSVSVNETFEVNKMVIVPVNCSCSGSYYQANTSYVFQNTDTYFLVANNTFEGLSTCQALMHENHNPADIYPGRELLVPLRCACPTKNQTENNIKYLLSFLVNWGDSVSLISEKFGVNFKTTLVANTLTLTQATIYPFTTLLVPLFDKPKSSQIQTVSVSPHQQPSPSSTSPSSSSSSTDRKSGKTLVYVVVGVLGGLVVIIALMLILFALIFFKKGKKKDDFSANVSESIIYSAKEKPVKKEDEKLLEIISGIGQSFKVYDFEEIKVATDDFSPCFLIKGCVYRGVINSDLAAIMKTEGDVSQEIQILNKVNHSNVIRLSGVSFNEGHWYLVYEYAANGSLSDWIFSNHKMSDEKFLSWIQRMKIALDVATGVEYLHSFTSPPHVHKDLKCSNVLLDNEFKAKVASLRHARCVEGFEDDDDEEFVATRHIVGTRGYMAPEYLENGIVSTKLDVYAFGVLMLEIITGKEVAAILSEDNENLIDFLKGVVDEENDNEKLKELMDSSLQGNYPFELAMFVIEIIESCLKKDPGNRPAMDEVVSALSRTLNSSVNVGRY

## CC(=O)N[C@H]1[C@H](O[C@H]2[C@H](O)[C@@H](NC(C)=O)[C@H](O[C@H]3[C@H](O)[C@@H](NC(C)=O)C(O)O[C@@H]3CO)O[C@@H]2CO)O[C@H](CO)[C@@H](O[C@@H]2O[C@H](CO)[C@@H](O[C@@H]3O[C@H](CO)[C@@H](O[C@@H]4O[C@H](CO)[C@@H](O)[C@H](O)[C@H]4NC(C)=O)[C@H](O)[C@H]3NC(C)=O)[C@H](O)[C@H]2NC(C)=O)[C@@H]1O (stereo partly shown) [CO-VI]
[1]
  Ki: 1200 nM

## CC(=O)N[C@H]1[C@H](O[C@H]2[C@H](O)[C@@H](NC(C)=O)[C@H](O[C@H]3[C@H](O)[C@@H](NC(C)=O)C(O)O[C@@H]3CO)O[C@@H]2CO)O[C@H](CO)[C@@H](O[C@@H]2O[C@H](CO)[C@@H](O[C@@H]3O[C@H](CO)[C@@H](O)[C@H](O)[C@H]3NC(C)=O)[C@H](O)[C@H]2NC(C)=O)[C@@H]1O (stereo partly shown) [CO-V]
[1]
  Ki: 12000 nM
[2]
  Ki: > 10000 nM
[3]
  Ki: > 10000 nM
[4]
  Ki: > 10000 nM
[5]
  Ki: > 10000 nM
[6]
  Ki: > 10000 nM

## CCCCCC/C=C\CCCCCCCC(=O)N[C@H]1[C@H](O[C@H]2[C@H](O)[C@@H](NC(C)=O)C(O)O[C@@H]2CO)O[C@H](CO)[C@@H](O)[C@@H]1O (stereo partly shown) [LCO-II(C16:1Δ9)]
[1]
  Ki: > 5000 nM
  affinity / competition for binding to LYR3 (in words): very low

## CCCCCC/C=C\CCCCCCCC(=O)N[C@H]1[C@H](O[C@H]2[C@H](O)[C@@H](NC(C)=O)[C@H](O[C@H]3[C@H](O)[C@@H](NC(C)=O)C(O)O[C@@H]3CO)O[C@@H]2CO)O[C@H](CO)[C@@H](O)[C@@H]1O (stereo partly shown) [LCO-III(C16:1Δ9)]
[1]
  Ki: 79 nM

## CCCCCCCCCCCCCCCC(=O)N[C@H]1[C@H](O[C@H]2[C@H](O)[C@@H](NC(C)=O)[C@H](O[C@H]3[C@H](O)[C@@H](NC(C)=O)[C@H](O[C@H]4[C@H](O)[C@@H](NC(C)=O)C(O)O[C@@H]4CO)O[C@@H]3CO)O[C@@H]2CO)O[C@H](CO)[C@@H](O)[C@@H]1O (stereo partly shown) [LCO-IV(C16:0)]
[1]
  Ki: 15 nM
[2]
  Ki: 50 nM
[3]
  Ki: 70 nM
[4]
  Ki: 140 nM
[5]
  Ki: 42 nM
[6]
  Ki: 23 nM

## CCCCCC/C=C\CCCCC/C=C/C(=O)N[C@H]1[C@H](O[C@H]2[C@H](O)[C@@H](NC(C)=O)[C@H](O[C@H]3[C@H](O)[C@@H](NC(C)=O)[C@H](O[C@H]4[C@H](O)[C@@H](NC(C)=O)C(O)O[C@@H]4CO)O[C@@H]3CO)O[C@@H]2CO)O[C@H](CO)[C@@H](O)[C@@H]1O (stereo partly shown) [LCO-IV(C16:2Δ2, 9)]
[1]
  Ki: 30 nM

## CCCCCCCC/C=C\CCCCCCCC(=O)N[C@H]1[C@H](O[C@H]2[C@H](O)[C@@H](NC(C)=O)[C@H](O[C@H]3[C@H](O)[C@@H](NC(C)=O)[C@H](O[C@H]4[C@H](O)[C@@H](NC(C)=O)C(O)O[C@@H]4CO)O[C@@H]3CO)O[C@@H]2CO)O[C@H](CO)[C@@H](O)[C@@H]1O (stereo partly shown) [LCO-IV(C18:1Δ9)]
[7]
  binding of the radiolabeled photoactivatable ligand to the 100 kDa polypeptide in presence of excess competitor: inhibited
[1]
  Ki: 22 nM

## CCCCCCCCCCCCCCCC(=O)N[C@H]1[C@H](O[C@H]2[C@H](O)[C@@H](NC(C)=O)[C@H](O[C@H]3[C@H](O)[C@@H](NC(C)=O)[C@H](O[C@H]4[C@H](O)[C@@H](NC(C)=O)C(O)O[C@@H]4COS(=O)(=O)O)O[C@@H]3CO)O[C@@H]2CO)O[C@H](CO)[C@@H](O)[C@@H]1O (stereo partly drawn) [LCO-IV(S, C16:0)]
[1]
  Ki: 26 nM
[2]
  Ki: 24 nM
[3]
  Ki: 18 nM
[4]
  Ki: 32 nM
[5]
  Ki: 11 nM
[6]
  Ki: 17 nM

## CCCCCC/C=C\CCCCCCCC(=O)N[C@H]1[C@H](O[C@H]2[C@H](O)[C@@H](NC(C)=O)[C@H](O[C@H]3[C@H](O)[C@@H](NC(C)=O)[C@H](O[C@H]4[C@H](O)[C@@H](NC(C)=O)C(O)O[C@@H]4COS(=O)(=O)O)O[C@@H]3CO)O[C@@H]2CO)O[C@H](CO)[C@@H](O)[C@@H]1O (stereo partly drawn) [LCO-IV(S, C16:1Δ9)]
[1]
  Ki: 21 nM

## CCCCCC/C=C\CCCCC/C=C/C(=O)N[C@H]1[C@H](O[C@H]2[C@H](O)[C@@H](NC(C)=O)[C@H](O[C@H]3[C@H](O)[C@@H](NC(C)=O)[C@H](O[C@H]4[C@H](O)[C@@H](NC(C)=O)C(O)O[C@@H]4COS(=O)(=O)O)O[C@@H]3CO)O[C@@H]2CO)O[C@H](CO)[C@@H](O)[C@@H]1O (stereo partly drawn) [LCO-IV(S, C16:2Δ2, 9)]
[7]
  binding of the radiolabeled photoactivatable ligand to the 100 kDa polypeptide in presence of excess competitor: completely abolished
[2]; read-out: Affinity (Kd)
  Kd: 31 nM
[3]; read-out: Affinity (Kd)
  Kd: 32 nM
[4]; read-out: Affinity (Kd)
  Kd: 64 nM
[5]; read-out: Affinity (Kd)
  Kd: 33 nM
[6]; read-out: Affinity (Kd)
  Kd: 40 nM

## CCCCCCCC/C=C\CCCCCCCC(=O)N[C@H]1[C@H](O[C@H]2[C@H](O)[C@@H](NC(C)=O)[C@H](O[C@H]3[C@H](O)[C@@H](NC(C)=O)[C@H](O[C@H]4[C@H](O)[C@@H](NC(C)=O)C(O)O[C@@H]4COS(=O)(=O)O)O[C@@H]3CO)O[C@@H]2CO)O[C@H](CO)[C@@H](O)[C@@H]1O (stereo partly drawn) [LCO-IV(S, C18:1Δ9)]
[7]
  binding of the radiolabeled photoactivatable ligand to the 100 kDa polypeptide in presence of excess competitor: inhibited
[1]
  Ki: 13.5 nM
[2]
  Ki: 16 nM
[3]
  Ki: 12 nM
[4]
  Ki: 19 nM
[5]
  Ki: 7 nM
[6]
  Ki: 13 nM

## CCCCCCCC/C=C\CCCCC/C=C/C(=O)N[C@H]1[C@H](O[C@H]2[C@H](O)[C@@H](NC(C)=O)[C@H](O[C@H]3[C@H](O)[C@@H](NC(C)=O)[C@H](O[C@H]4[C@H](O)[C@@H](NC(C)=O)C(O)O[C@@H]4COS(=O)(=O)O)O[C@@H]3CO)O[C@@H]2CO)O[C@H](CO)[C@@H](O)[C@@H]1O (stereo partly drawn) [LCO-IV(S, C18:2Δ2, 9)]
[1]
  Ki: 7 nM

## CCCCCC/C=C\CCCCCCCC(=O)N[C@H]1[C@H](O[C@H]2[C@H](O)[C@@H](NC(C)=O)[C@H](O[C@H]3[C@H](O)[C@@H](NC(C)=O)[C@H](O[C@H]4[C@H](O)[C@@H](NC(C)=O)[C@H](O[C@H]5[C@H](O)[C@@H](NC(C)=O)C(O)O[C@@H]5CO)O[C@@H]4CO)O[C@@H]3CO)O[C@@H]2CO)O[C@H](CO)[C@@H](O)[C@@H]1O (stereo partly shown) [LCO-V(C16:1Δ9)]
[1]
  Ki: 4.3 nM
  affinity / competition for binding to LYR3 (in words): slightly higher

## peptidoglycan
[1]
  affinity / competition for binding to LYR3 (in words): no competition
